Test results reported in the Kinase Knowledgebase extract (Sharma et al. 2016).

Molecular target: CDK2 (human) (UniProt P24941)
Assay: Enzyme Assay

`N#Cc1cnn2c(Nc3ccc(F)c(Cl)c3)cc(N[C@H]3CC[C@H](N)CC3)nc12` was tested, and the IC50 was < 100 µM.

In the case of `Cc1c(NC2CCCNC2)nc2ccnn2c1Nc1ccc(I)cc1` (configuration not stated), the IC50 is reported as < 100 µM.

In the case of `Cc1c(N[C@H]2CC[C@H](N)CC2)nc2ccnn2c1Nc1cccc(OCc2cccc(Cl)c2)c1`, the IC50 is reported as < 100 µM.

With `CCOc1ccc(Nc2c(C)c(N[C@H]3CC[C@H](N)CC3)nc3c(C4CC4)cnn23)cc1` the IC50 was < 100 µM.

With `Cc1c(N[C@H]2CC[C@H](N)CC2)nc2ccnn2c1Nc1ccc(-c2ccccc2F)cc1` the IC50 was < 100 µM.

`Cc1c(N[C@H]2CC[C@H](N)CC2)nc2ccnn2c1Nc1cccc(Cl)c1` was tested, and the IC50 was < 100 µM.

In the case of `N[C@H]1CC[C@H](Nc2cc(Nc3ccc(F)c(Cl)c3)n3ncc(Br)c3n2)CC1`, the IC50 is reported as < 100 µM.

In the case of `CCOc1ccc(Nc2c(OC)c(NC3CCCNC3)nc3ccnn23)cc1` (configuration not stated), the IC50 is reported as < 100 µM.

`Cc1cc2cc(Nc3c(C)c(N[C@H]4CC[C@H](N)CC4)nc4ccnn34)ccc2[nH]1` was tested, and the IC50 was < 100 µM.

For `Cc1c(N[C@H]2CC[C@H](N)CC2)nc2ccnn2c1Nc1ccc(-c2cc3ccccc3o2)cc1`, the IC50 was < 100 µM.

For `CCc1c(N[C@H]2CC[C@H](N)CC2)nc2ccnn2c1Nc1ccc(OC)c(C(F)(F)F)c1`, the IC50 was < 100 µM.

`Cc1c(N[C@H]2CC[C@H](N)CC2)nc2ccnn2c1Nc1ccc(-c2cccc(C#N)c2)cc1` was tested, and the IC50 was < 100 µM.

`Cc1ccc(COc2cccc(Nc3c(C)c(N[C@H]4CC[C@H](N)CC4)nc4ccnn34)c2)cc1` was tested, and the IC50 was < 100 µM.

With `Cc1c(N[C@H]2CC[C@H](N)CC2)nc2ccnn2c1Nc1ccc(N(C)C)cc1` the IC50 was < 100 µM.

For `COc1ccc(Nc2c(CCCO)c(N[C@H]3CC[C@H](N)CC3)nc3ccnn23)cc1`, the IC50 was < 100 µM.

For `CCOc1ccc(Nc2c(C)c(NC3CCCNC3)nc3c(CC)cnn23)cc1` (configuration not stated), the IC50 was < 100 µM.

In the case of `Cc1c(N[C@H]2CC[C@H](N)CC2)nc2ccnn2c1Nc1ccc(-c2ccccc2O)cc1`, the IC50 is reported as < 100 µM.

With `Cc1c(N[C@H]2CC[C@H](N)CC2)nc2ccnn2c1Nc1ccc(OC(F)(F)F)c(Cl)c1` the IC50 was < 100 µM.

In the case of `Cc1c(N[C@H]2CC[C@H](N)CC2)nc2ccnn2c1Nc1ccc(-c2ccncc2)cc1`, the IC50 is reported as < 100 µM.

In the case of `Cc1c(N[C@H]2CC[C@H](N)CC2)nc2ccnn2c1Nc1ccc(-c2cccc(OC(F)(F)F)c2)cc1`, the IC50 is reported as < 100 µM.

With `CCc1c(NC2CCCNC2)nc2ccnn2c1Nc1ccc(Oc2ccc(C)cc2)cc1` (configuration not stated) the IC50 was < 100 µM.

With `CCOc1ccc(Nc2c(C)c(N[C@H]3CC[C@H](N)CC3)nc3c(C(=O)Nc4ccccn4)cnn23)cc1` the IC50 was < 100 µM.

For `Cc1c(N[C@H]2CC[C@H](N)CC2)nc2ccnn2c1Nc1ccc(-c2ccc(CO)cc2)cc1`, the IC50 was < 100 µM.

With `Cc1c(N[C@H]2CC[C@H](N)CC2)nc2c(F)cnn2c1Nc1ccc(I)cc1` the IC50 was < 100 µM.

With `Cc1c(N[C@H]2CC[C@H](N)CC2)nc2ccnn2c1Nc1ccc(OCCN2CCOCC2)cc1` the IC50 was < 100 µM.

For `Cc1c(N[C@H]2CC[C@H](N)CC2)nc2ccnn2c1Nc1ccc2ncsc2c1`, the IC50 was < 100 µM.

For `Cc1c(N[C@H]2CC[C@H](N)CC2)nc2ccnn2c1Nc1cccc2[nH]ccc12`, the IC50 was < 100 µM.

In the case of `CCc1c(N[C@H]2CC[C@H](N)CC2)nc2ccnn2c1Nc1ccc(OC(F)(F)C(F)F)cc1`, the IC50 is reported as < 100 µM.

In the case of `CCCCC(=O)c1cnn2c(Nc3ccc(OCC)cc3)c(C)c(N[C@H]3CC[C@H](N)CC3)nc12`, the IC50 is reported as < 100 µM.

`CCOc1ccc(Nc2c(C)c(NC3CCCNC3)nc3c(C4CCCCC4)cnn23)cc1` (configuration not stated) was tested, and the IC50 was < 100 µM.

With `CC(=O)c1ccc(-c2ccc(Nc3c(C)c(N[C@H]4CC[C@H](N)CC4)nc4ccnn34)cc2)s1` the IC50 was < 100 µM.

In the case of `Cc1c(N[C@H]2CC[C@H](N)CC2)nc2ccnn2c1Nc1ccc(-c2cccc(C(F)(F)F)c2)cc1`, the IC50 is reported as < 100 µM.

In the case of `Cc1c(N[C@H]2CC[C@H](N)CC2)nc2ccnn2c1Nc1ccc(C(=O)Nc2ccccc2)cc1`, the IC50 is reported as < 100 µM.

For `Cc1c(N[C@H]2CC[C@H](N)CC2)nc2ccnn2c1Nc1ccc(-c2ccoc2)cc1`, the IC50 was < 100 µM.

With `Cc1c(N[C@H]2CC[C@H](N)CC2)nc2ccnn2c1Nc1ccc(C(=O)NCc2cccnc2)cc1` the IC50 was < 100 µM.

In the case of `Cc1c(N[C@H]2CC[C@H](N)CC2)nc2ccnn2c1Nc1ccc(OCC2CCCN(C)C2)cc1` (some centres not stated), the IC50 is reported as < 100 µM.

`CCc1c(N[C@H]2CC[C@H](N)CC2)nc2ccnn2c1Nc1cccc(Cl)c1` was tested, and the IC50 was < 100 µM.

For `CCOc1cccc(Nc2c(CC)c(N[C@H]3CC[C@H](N)CC3)nc3ccnn23)c1`, the IC50 was < 100 µM.

`Cc1c(N[C@H]2CC[C@H](N)CC2)nc2ccnn2c1Nc1ccc(-c2cccc(N(C)C)c2)cc1` was tested, and the IC50 was < 100 µM.

In the case of `CNC(=O)c1ccc(Nc2c(C)c(N[C@H]3CC[C@H](N)CC3)nc3ccnn23)cc1`, the IC50 is reported as < 100 µM.

For `CCc1c(N[C@H]2CC[C@H](N)CC2)nc2ccnn2c1Nc1ccc(Br)cc1`, the IC50 was < 100 µM.

With `N[C@H]1CC[C@H](Nc2cc(Nc3ccc(F)c(Cl)c3)n3ncc(I)c3n2)CC1` the IC50 was < 100 µM.

In the case of `CCOc1ccc(Nc2c(C)c(N[C@H]3CC[C@H](N)CC3)nc3c(OC)cnn23)cc1`, the IC50 is reported as < 100 µM.

In the case of `Cc1c(NC2CCCNC2)nc2ccnn2c1Nc1ccc(-c2cccc(CO)c2)cc1` (configuration not stated), the IC50 is reported as < 100 µM.

In the case of `Cc1cscc1-c1ccc(Nc2c(C)c(N[C@H]3CC[C@H](N)CC3)nc3ccnn23)cc1`, the IC50 is reported as < 100 µM.

For `CCOc1ccc(Nc2c(-c3ccc(OC)cc3)c(N[C@H]3CC[C@H](N)CC3)nc3ccnn23)cc1`, the IC50 was < 100 µM.

For `CCOc1ccc(Nc2c(C)c(N[C@H]3CC[C@H](N)CC3)nc3c(CO)cnn23)cc1`, the IC50 was < 100 µM.

In the case of `CCc1c(N[C@H]2CC[C@H](N)CC2)nc2ccnn2c1Nc1ccccc1OC`, the IC50 is reported as < 100 µM.

In the case of `Cc1c(N[C@H]2CC[C@H](N)CC2)nc2ccnn2c1Nc1ccc(OCCC2CCCCC2)cc1`, the IC50 is reported as < 100 µM.

In the case of `Cc1c(N[C@H]2CC[C@H](N)CC2)nc2ccnn2c1Nc1ccc(CO)cc1`, the IC50 is reported as < 100 µM.

With `Cc1c(N[C@H]2CC[C@H](N)CC2)nc2ccnn2c1Nc1ccc(-c2ccc(Cl)cc2)cc1` the IC50 was < 100 µM.

`Cc1c(NC2CCCNC2)nc2ccnn2c1Nc1ccc(-c2ccsc2)cc1` (configuration not stated) was tested, and the IC50 was < 100 µM.
